A word on the inhibition in vivo: it is how much of the control response was suppressed. As a reminder, the IC50 is the concentration at which inhibition is half-maximal.

Series [1] relates to Mus musculus. The series is described as follows: Anti-inflammatory activity in carrageenan-induced Mus musculus Swiss albino (mouse) paw edema model assessed as inhibition of paw edema at 10 mg/kg, sc administered 30 min prior to carrageenan injection measured after 360 min. It counts as functional. Conditions: route subcutaneous.
Series [2] deals with Mus musculus. The series is described as follows: Anti-inflammatory activity in carrageenan-induced Mus musculus Swiss albino (mouse) paw edema model assessed as inhibition of paw edema at 10 mg/kg, sc administered 30 min prior to carrageenan injection measured after 270 min. Conditions: route subcutaneous. It counts as functional.
The subject of series [3] is Mus musculus. The series is described as follows: Anti-inflammatory activity in carrageenan-induced Mus musculus Swiss albino (mouse) paw edema model assessed as inhibition of paw edema at 10 mg/kg, sc administered 30 min prior to carrageenan injection measured after 180 min. It is filed as functional. Conditions: route subcutaneous.
The subject of series [4] is Mus musculus. The series is described as follows: Anti-inflammatory activity in carrageenan-induced Mus musculus Swiss albino (mouse) paw edema model assessed as inhibition of paw edema at 10 mg/kg, sc administered 30 min prior to carrageenan injection measured after 90 min. Conditions: route subcutaneous. It is filed as functional.
The subject of series [5] is Mus musculus. Briefly: Anti-inflammatory activity in carrageenan-induced Mus musculus Swiss albino (mouse) paw edema model assessed as paw swelling at 10 mg/kg, sc administered 30 min prior to carrageenan injection measured after 360 min (reference value: 77.0 +/-3.0 x10'-2 mm). It counts as functional. Conditions: route subcutaneous.
The subject of series [6] is Mus musculus. Briefly: Anti-inflammatory activity in carrageenan-induced Mus musculus Swiss albino (mouse) paw edema model assessed as paw swelling at 10 mg/kg, sc administered 30 min prior to carrageenan injection measured after 270 min (reference value: 75.0 +/-3.0 x10'-2 mm). It is filed as functional. The following applies: route subcutaneous.
The test system of series [7] is Mus musculus. The series is described as follows: Anti-inflammatory activity in carrageenan-induced Mus musculus Swiss albino (mouse) paw edema model assessed as paw swelling at 10 mg/kg, sc administered 30 min prior to carrageenan injection measured after 180 min (reference value: 51.0 +/-3.0 x10'-2 mm). It is filed as functional. The following applies: route subcutaneous.

Series [8] deals with Mus musculus. The series is described as follows: Anti-inflammatory activity in carrageenan-induced Mus musculus Swiss albino (mouse) paw edema model assessed as paw swelling at 10 mg/kg, sc administered 30 min prior to carrageenan injection measured after 90 min (reference value: 38.0 +/-2.0 x10'-2 mm). Conditions: route subcutaneous. It counts as functional.
The subject of series [9] is HeLa. The series is described as follows: Anticancer activity against Homo sapiens (human) HeLa cells assessed as cell viability at 50 uM after 24 hr by MTT assay (reference value: 100 +/-4.13%). It is filed as functional. Conditions: read-out: Activity. On the technique in general: Tetrazolium assays rely on reduction of a dye to a coloured formazan, in cell work by metabolically active cells.

Series [10] relates to MDA-MB-231. The series is described as follows: Anticancer activity against Homo sapiens (human) estrogen-independent MDA-MB-231 cells assessed as cell viability at 50 uM after 48 hr by MTT assay (reference value: 100 +/-3.71%). It counts as functional. Conditions: MDA-MB-231, 48 h, read-out: Activity.
Series [11] is filed under the species Mus musculus. The series is described as follows: Acute toxicity against Mus musculus Swiss albino (mouse) assessed as morbidity after 48 hr. It is filed as organism-based. The following applies: in vivo.
The species named for series [12] is Mus musculus. Briefly: Acute toxicity against Mus musculus Swiss albino (mouse) assessed as mortality after 48 hr. Conditions: in vivo. It is filed as organism-based.
The test system of series [13] is HeLa. Briefly: Anticancer activity against Homo sapiens (human) HeLa cells assessed as inhibition of cell viability by MTT assay. It counts as functional, cell-based.
For series [14], the system named is HL-60. Briefly: Anticancer activity against Homo sapiens (human) HL60 cells assessed as cell viability at 50 uM after 48 hr by MTT assay (reference value: 100 +/-8.41%). It is filed as functional. The following applies: HL-60, 48 h, read-out: Activity.
Series [15] deals with HL-60. Briefly: Anticancer activity against Homo sapiens (human) HL60 cells assessed as cell viability at 50 uM after 24 hr by MTT assay (reference value: 100 +/-3.55%). It counts as functional. Conditions: HL-60, 24 h, read-out: Activity.
The test system of series [16] is MCF7. Briefly: Anticancer activity against Homo sapiens (human) MCF7 cells assessed as cell viability at 50 uM after 48 hr by MTT assay (100 +/-5.08%). It counts as functional. The following applies: MCF7, 48 h, read-out: Activity.
In series [17] the test system is MCF7. Briefly: Anticancer activity against Homo sapiens (human) MCF7 cells assessed as cell viability at 50 uM after 24 hr by MTT assay (reference value: 100 +/-2.74%). It counts as functional. The following applies: MCF7, 24 h, read-out: Activity.
In series [18] the test system is Raji. The series is described as follows: Anticancer activity against Homo sapiens (human) Raji cells assessed as cell viability at 50 uM after 48 hr by MTT assay (reference value: 100 +/-4.26%). It counts as functional. The following applies: read-out: Activity.
The test system of series [19] is Raji. Briefly: Anticancer activity against Homo sapiens (human) Raji cells assessed as cell viability at 50 uM after 24 hr by MTT assay (reference value: 100 +/-5.02%). It counts as functional. The following applies: read-out: Activity.
Series [20] deals with HeLa. The series is described as follows: Anticancer activity against Homo sapiens (human) HeLa cells assessed as cell viability at 50 uM after 48 hr by MTT assay (reference value: 100 +/-3.8%). It counts as functional. Conditions: read-out: Activity.
The subject of series [21] is MDA-MB-231. The series is described as follows: Anticancer activity against Homo sapiens (human) estrogen-independent MDA-MB-231 cells assessed as cell viability at 50 uM after 24 hr by MTT assay (reference value: 100 +/-7.08%). It is filed as functional. The following applies: MDA-MB-231, 24 h, read-out: Activity.
In series [22] the test system is Mus musculus. The series is described as follows: Anti-inflammatory activity in carrageenan-induced Mus musculus Swiss albino (mouse) paw edema model assessed as paw swelling at 100 mg/kg, sc administered 30 min prior to carrageenan injection measured after 270 min (rvb = 75.0 +/-3.0 x10'-2 mm). It counts as functional. The following applies: route subcutaneous.

Series [23] concerns Mus musculus. The series is described as follows: Anti-inflammatory activity in carrageenan-induced Mus musculus Swiss albino (mouse) paw edema model assessed as inhibition of paw edema at 100 mg/kg, sc administered 30 min prior to carrageenan injection measured after 360 min. It counts as functional. The following applies: route subcutaneous.
Series [24] deals with Mus musculus. Briefly: Anti-inflammatory activity in carrageenan-induced Mus musculus Swiss albino (mouse) paw edema model assessed as inhibition of paw edema at 100 mg/kg, sc administered 30 min prior to carrageenan injection measured after 270 min. It counts as functional. Conditions: route subcutaneous.
Series [25] has as its system Mus musculus. The series is described as follows: Anti-inflammatory activity in carrageenan-induced Mus musculus Swiss albino (mouse) paw edema model assessed as inhibition of paw edema at 100 mg/kg, sc administered 30 min prior to carrageenan injection measured after 180 min. It is filed as functional. The following applies: route subcutaneous.
Series [26] has as its system Mus musculus. The series is described as follows: Anti-inflammatory activity in carrageenan-induced Mus musculus Swiss albino (mouse) paw edema model assessed as inhibition of paw edema at 100 mg/kg, sc administered 30 min prior to carrageenan injection measured after 90 min. The following applies: route subcutaneous. It is filed as functional.
Series [27] deals with Mus musculus. The series is described as follows: Anti-inflammatory activity in carrageenan-induced Mus musculus Swiss albino (mouse) paw edema model assessed as paw swelling at 100 mg/kg, sc administered 30 min prior to carrageenan injection measured after 360 min (reference value: 77.0 +/-3.0 x10'-2 mm). The following applies: route subcutaneous. It counts as functional.

The test system of series [28] is Mus musculus. Briefly: Anti-inflammatory activity in carrageenan-induced Mus musculus Swiss albino (mouse) paw edema model assessed as paw swelling at 100 mg/kg, sc administered 30 min prior to carrageenan injection measured after 180 min (reference value: 51.0 +/-3.0 x10'-2 mm). It is filed as functional. Conditions: route subcutaneous.
Series [29] relates to Mus musculus. Briefly: Anti-inflammatory activity in carrageenan-induced Mus musculus Swiss albino (mouse) paw edema model assessed as paw swelling at 100 mg/kg, sc administered 30 min prior to carrageenan injection measured after 90 min (reference value: 38.0 +/-2.0 x10'-2 mm). It is filed as functional. The following applies: route subcutaneous.
Series [30] deals with Mus musculus. Briefly: Analgesic activity in Mus musculus Swiss albino (mouse) assessed as inhibition of p-benzoquinone-induced abdominal writhing at 100 mg/kg, sc administered 30 min prior to PBQ injection measured after 5 min for 15 min. Conditions: route subcutaneous. It counts as functional, Abdomen. More on the design: scale not given: the % may be the effect or the level left. Background: In writhing tests, fewer writhes than in controls are read as antinociception.

Series [31] concerns HL-60. Briefly: Anticancer activity against Homo sapiens (human) HL60 cells assessed as inhibition of cell viability by MTT assay. It counts as functional, cell-based.

SMILES strings stand for the structures.

For the compound `COc1ccc2c(c1)c(CC(=O)O)c(C)n2C(=O)c1ccc(Cl)cc1` [INDOMETHACIN], the inhibition in vivo at 10 mg/kg in [1] turned out to be 45.7%; in series [2], 45.6%; in series [3], 31.7%; in series [4], 15.5%. Also, the Activity stood at 42 ×10⁻² mm in series [5], 41 ×10⁻² mm in series [6], 35 ×10⁻² mm in series [7] and 32 ×10⁻² mm in series [8].
In the case of `Cc1ccc(-c2cc(C(=O)Oc3ccc(-n4ccnc4)cc3)n(Cc3ccccc3)n2)cc1`, the viability at 50 µM in series [9] stood at 36.7%; in series [10], 24.4%; in series [14], 121%; in [15] it was 108%; in series [16], 52.4%; in series [17] it was 67.6%. Also, the viability at 50 µM was found to be 106% in [18], 96.5% in series [19], 33.9% in [20] and 33.1% in [21]. Also, the Activity entry in series [11] was “Non-toxic”; in [12], “Non-toxic”; in series [22] it was 61.6 ×10⁻² mm; in series [27], 62 ×10⁻² mm; in [28] it was 43 ×10⁻² mm; in [29], 35 ×10⁻² mm. In [30], the Activity stood at 14.9%. In [13], the IC50 was determined as 30.4 µM. For the same compound, the inhibition in vivo at 100 mg/kg in series [23] was 18.8%; in [24], 19.2%; in series [25], 15.4%; in series [26], 6.6%.
Take `Cc1ccc(-c2cc(C(=O)N3CCN(Cc4ccc(C(C)C)cc4)CC3)nn2Cc2ccccc2)cc1`: the viability at 50 µM was found to be 52.5% in series [9]; 41.1% in series [10]; 15.5% in [14]; 11.9% in series [15]; 56.7% in series [16]; 51.4% in series [17]. Further, the viability at 50 µM in series [18] came to 29.6%; in series [19], 44.4%; in series [20], 34.5%; in series [21], 67.2%. The Activity entry in series [11] is on record as “Non-toxic”; in [12] it was “Non-toxic”; in [22] it was 31 ×10⁻² mm; in series [27] it was 28 ×10⁻² mm; in series [28] it was 28 ×10⁻² mm; in [29], 34 ×10⁻² mm. Further, the Activity in [30] was determined as 59.2%. Moreover, the half-maximal inhibitory concentration (IC50) was 24.4 µM in [31] and 30.5 µM in series [13]. Further, the inhibition in vivo at 100 mg/kg in [23] was 63.4%; in series [24] it was 58.9%; in series [25] it was 46.3%; in series [26], 8.9%.
